Data reported in patent US20010053774A1, “Non-steroidal ligands for the estrogen receptor” (GLAXO WELLCOME INC.., priority 1994, published 2001).
Like-named read-outs stand apart in the source and are kept apart here.

Assays:
rat estrogen receptor = rat estrogen receptor (Rattus norvegicus, UniProt P06211); settings: for receptor affinity in the receptor binding assay (in words): comparison within the amide analog series
Excerpt: Those skilled in the art will appreciate that several acceptable varieties of rat estrogen receptor binding assays are known and available for initial screening of the compounds of the present invention with respect to their ability to bind to the appropriate receptor. Compounds were initially evaluated as set forth below in an rat estrogen receptor binding assay for the ability to inhibit the binding of [^3H]-estradiol.

[1] = tested on: Ishikawa human endometrioma cell line; assay: Ishikawa cell functional assay of estrogenic activity (alkaline phosphatase induction); format: cell-based; settings: for EC50: Ishikawa-Var I cells, 2 days incubation, estrogen agonist activity, read-out: EC50 (concentration inducing 50% of maximal alkaline phosphatase activity); for agonist activity (Emax) in the Ishikawa cell functional assay (in words): comparison with tamoxifen or within the series; for Emax (maximal alkaline phosphatase activity) / Emax: percentage of the alkaline phosphatase activity induced by a saturating concentration of estradiol; for Emax: Ishikawa, read-out: Emax (maximal alkaline phosphatase activity)
Protocol: Subconfluent Ishikawa-Var I cells were removed from maintenance growth conditions and resuspended in phenol red-free DMEM-F12 containing 5% charcoal stripped FBS and 2 mM glutamine at a concentration of 58,500 cells/mL. Cells were plated at a density of 13,000 cells/cm^2 and placed in an incubator (37° C., 5% CO2) for 3 days. Cells were harvested and resuspended in phenol red-free DMEM-F12 containing 1% charcoal stripped FBS, 2 mM glutamine, 100 Units/mL penicillin and 100 μg/mL streptomycin to a concentration of 83,000 cells/mL. Cells were seeded at a density of 8300 cells/well in 96 well plates and allowed to attach overnight. Appropriate drug treatments at 2× concentrations were added in 0.1 mL of medium containing 0.2% DMSO. Plates were incubated for 2 days, media was aspirated and plates washed once with 300 μL 0.9% sterile saline. Plates were frozen at −70° C. and then warmed to RT. The attached cells were assayed for alkaline phosphatase activity by addition of 200 μL of 5 mM p-nitrophenylphosphate in 1 M diethanolamine, pH 10.4, containing 0.1% (w/v) Triton X-100, incubation at 37° C. for 30 min and measurement of absorbance at 405 nm on a Molecular Devices ThermoMax plate reader.

[2] = tested on: 21 day old female SD rats; assay: in-vivo anti-uterotrophic activity in immature rats (uterine weight/body weight); parameters: species or system rat; settings: 10 μmol/kg by gavage for 3 days, compared with tamoxifen
Protocol: In order to evaluate the compounds set forth above for in-vivo anti-uterotrophic activity, groups of five 21 day old female SD rats (30-35 g) were weighed and the average weights recorded for each treatment group as illustrated in FIG. 1. Stock solutions (10×) of the triphenylethylene analogs in ethanol were diluted with 0.5% methyl cellulose and 10 μmol/kg was dosed by gavage to the animals. Estradiol was dissolved in sesame oil and 100 nmol/kg dosed by subcutaneous injection. Animals were dosed for 3 days and sacrificed on day 4 by CO2 asphyxiation. The body weights were obtained, uteri removed, blotted and weighed. Data is expressed as uterine weight/body weight±standard error. Solid bars represent data from animals dosed with test compound alone. Open bars represent data from animals dosed with test compounds 6h prior to a dose of estradiol.

[3] = tested on: 90 day old estrogen deficient ovariectomized rats; assay: bone mineral density in ovariectomized rats (lumbar spine and tibia); format: in vivo, rat; settings: 10 μmol/kg orally once a day for 28 days, versus sham-operated
Protocol: As an example of the functional profile of these compounds in bone, Compound No. 9 was evaluated in 90 day old estrogen deficient ovariectomized rats for their ability to inhibit loss of bone mineral density. Ninety day old SD rats were divided into groups of six. […] were surgically ovariectomized. Two days post-ovariectomy, animals were dosed by gavage with either 10 μmol/kg of Compound No. 9 in 0.5% methyl cellulose or vehicle once a day for 28 days. One group of aminals was sham-operated, and 2 days post-ovariectomy dosed with vehicle once a day for 28 days. At 0, 14 and 28 days, rats were anesthesized with isoflurane and placed in the supine position with their spines parallel to the long axis of the densitometer table. The lumbar spine was scanned using the pelvic bones as a landmark. […] The right tibia was analysed with subregional high resolution software, focusing on the 3-5 mm distal from the growth plate previously identified as a region of accelerated bone loss due to ovariectomy.
BMD was measured by dual-energy X-ray absorptiometry using a Hologic QDR-2000 bone densitometer using a regional high-resolution software package with default scan length, width, line spacing and point resolution of 2, 0.75, 0.01 and 0.005 in. respectively.

Chain of rat estrogen receptor (P06211 whole entry): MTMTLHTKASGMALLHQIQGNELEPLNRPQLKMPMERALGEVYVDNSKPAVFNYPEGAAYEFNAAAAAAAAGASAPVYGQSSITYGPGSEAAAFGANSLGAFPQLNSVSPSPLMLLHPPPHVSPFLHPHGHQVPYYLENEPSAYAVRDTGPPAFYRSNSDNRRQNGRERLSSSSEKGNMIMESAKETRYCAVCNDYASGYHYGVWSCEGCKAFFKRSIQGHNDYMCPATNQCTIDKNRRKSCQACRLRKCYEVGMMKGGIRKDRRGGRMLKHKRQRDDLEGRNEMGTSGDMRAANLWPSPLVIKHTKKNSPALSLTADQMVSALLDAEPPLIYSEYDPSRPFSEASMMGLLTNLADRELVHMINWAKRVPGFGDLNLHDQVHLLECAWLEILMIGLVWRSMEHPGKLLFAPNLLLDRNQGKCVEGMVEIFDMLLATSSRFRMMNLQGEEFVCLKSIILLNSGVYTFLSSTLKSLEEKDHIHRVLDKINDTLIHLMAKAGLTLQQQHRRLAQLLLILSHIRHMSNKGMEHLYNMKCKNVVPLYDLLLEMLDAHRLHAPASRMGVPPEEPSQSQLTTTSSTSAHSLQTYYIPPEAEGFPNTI

Row | SMILES | EC50 ([1]; Homo sapiens, 48 h) | Emax ([1]; Homo sapiens) | melting point | also measured
1 | CCC(=C(c1ccccc1)c1ccc(C=CC(=O)N(CC)CC)cc1)c1ccccc1 [Compound No. 1, 3-[4-(1,2-Diphenyl-but-1-enyl)-phenyl]-N,N-diethyl acrylamide] | – | – | – | receptor affinity in the receptor binding assay (in words) (rat estrogen receptor): highest affinity; estrogen receptor binding affinity relative to tamoxifen (rat estrogen receptor; higher affinity than tamoxifen): approx. 10 fold; EC50 [1]: 2.3 nM; agonist activity (Emax) in the Ishikawa cell functional assay (in words) [1]: significantly lower agonist activity (Emax) than tamoxifen; Emax (maximal alkaline phosphatase activity) [1]: 11.9 ± 1.2%
2 | CCC(=C(c1ccccc1)c1ccc(C=C(C)C(=O)N(CC)CC)cc1)c1ccccc1 [Compound No. 4, 3-[4-(1,2-Diphenyl-but-1-enyl)-phenyl]-N, N-diethyl-2-methyl-acrylamide] | 20 nM | 18.8 ± 2.3% | – | –
3 | CCC(=C(c1ccccc1)c1ccc(C(C)=CC(=O)N(CC)CC)cc1)c1ccccc1 [Compound No. 5, 3-[4-(1,2-Diphenyl-but-1-enyl)-phenyl]-but-2-enoic acid diethylamide] | 7.3 nM | 15 ± 3% | 109 to 111 °C | –
4 | CCC(=C(c1ccccc1)c1ccc(C=CC(=O)OC)cc1)c1ccccc1 [Compound No. 6, 3-[4-(1,2-Diphenyl-but-1-enyl)-phenyl]-acrylic acid methyl ester] | – | – | 133 to 135 °C | –
5 | CCC(=C(c1ccccc1)c1ccc(C=CC#N)cc1)c1ccccc1 [Compound No. 7, 3-[4-(1,2-Diphenyl-but-1-enyl)-phenyl]-acrylonitrile] | – | – | 101 to 102 °C | –
6 | CCC(=C(c1ccccc1)c1ccc(C=CC(=O)OC(C)(C)C)cc1)c1ccccc1 [Compound No. 8, 3-[4-(1,2-Diphenyl-but-1-enyl)-phenyl]-acrylic acid tert-butyl ester] | – | – | 139 to 140 °C | –
7 | CCC(=C(c1ccccc1)c1ccc(C=CC(=O)O)cc1)c1ccccc1 [Compound No. 9, 3-[4-(1,2-Diphenyl-but-1-enyl)-phenyl]-acrylic acid] | 58 nM | 3.8 ± 0.9% | – | agonist activity (Emax) in the Ishikawa cell functional assay (in words) [1]: lowest residual agonist activity; residual agonist activity, uterine weight/body weight (FIG. 1) [2]: less residual agonist activity than tamoxifen; bone mineral density (BMD), lumbar spine and tibia (FIG. 2) [3]: full agonist activity
8 | CCC(=C(c1ccccc1)c1ccc(C=CC(=O)N(C2CCCCC2)C2CCCCC2)cc1)c1ccccc1 [Compound No. 12, N,N-Dicyclohexyl-3-[4-(1,2-diphenyl-but-1-enyl)-phenyl] acrylamide] | – | – | – | receptor affinity in the receptor binding assay (in words) (rat estrogen receptor): reduced receptor affinity; EC50 [1]: 70 nM; Emax (maximal alkaline phosphatase activity) [1]: 19.4 ± 2.0%
9 | CCC(=C(c1ccccc1)c1ccc(C=Cc2noc(C)n2)cc1)c1ccccc1 [Compound No. 18, 3-{2-[4-(1,2-Diphenyl-but-1-enyl)-phenyl]-vinyl}-5-methyl-[1,2,4]-oxadiazole] | – | – | 158 to 159 °C | –
10 | CCC(=C(c1ccccc1)c1ccc(C=CCO)cc1)c1ccccc1 [Compound No. 19, 3-[4-(1,2-Diphenyl-but-1-enyl)-phenyl]-prop-2-ene-1-ol] | – | – | 80 to 83 °C | –
11 | C[C@]12CC[C@@H]3c4ccc(O)cc4CC[C@H]3[C@@H]1CC[C@@H]2O [Estradiol, estradiol, reference compound] | 0.01 nM | 100% | – | –
12 | CC/C(=C(\c1ccccc1)c1ccc(OCCN(C)C)cc1)c1ccccc1 [Tamoxifen, (Z)-1,2-diphenyl-1-[4-[2-(dimethylamino)ethoxy]phenyl]-1-butene, reference compound] | 33 nM | 16.5 ± 0.6% | – | –
13 | CCC(=C(c1ccccc1)c1ccc(C2CC2C(=O)N(CC)CC)cc1)c1ccccc1 (stereo not drawn) [compound 3, 2-[4-(1,2-Diphenyl-but-1-enyl)-phenyl]cyclopropanecarboxylic acid diethylamide] | 4.9 nM | 15.7 ± 1.8% | 42 to 44 °C | –
14 | CCC(=C(c1ccccc1)c1ccc(C=CC(=O)N2CCOCC2)cc1)c1ccccc1 [compound 10, 3-[4-(1,2-Diphenyl-but-1-enyl)-phenyl]-1-morpholin-4-yl-prop-2-en-1-one] | 6.9 nM | 14.8 ± 2.4% | 150 to 154 °C | –
15 | CCC(=C(c1ccccc1)c1ccc(C=CC(=O)NCCCOC)cc1)c1ccccc1 [compound 11, 3-[4-(1,2-Diphenyl-but-1-enyl)-phenyl]-N-(3-methoxy-propyl)-acrylamide] | 11 nM | 14 ± 1.5% | 132 to 135 °C | –
16 | CCC(=C(c1ccccc1)c1ccc(C=CC(=O)N(CC)CCN(C)C)cc1)c1ccccc1 [compound 13, N-(2-Dimethylamino-ethyl)-3-[4-(1,2-diphenyl-but-1-enyl)-phenyl]-N-ethyl acrylamide] | – | – | – | EC50 [1]: 4.6 nM; Emax (maximal alkaline phosphatase activity) [1]: 16.5 ± 1.7%
17 | CCCCCCCCN(C)C(=O)C=Cc1ccc(C(=C(CC)c2ccccc2)c2ccccc2)cc1 [compound 14, 3-[4-(1,2-Diphenyl-but-1-enyl)-phenyl]-N-methyl-N-octyl acrylamide] | – | – | – | EC50 [1]: 12 nM; agonist activity (Emax) in the Ishikawa cell functional assay (in words) [1]: lowest residual agonist activity; Emax (maximal alkaline phosphatase activity) [1]: 6.3 ± 1.2%
18 | CCC(=C(c1ccccc1)c1ccc(C=CC(N)=O)cc1)c1ccccc1 [compound 15, 3-[4-(1,2-Diphenyl-but-1-enyl)-phenyl]acrylamide] | 8.6 nM | 8.9 ± 1.4% | 200 to 202 °C | agonist activity (Emax) in the Ishikawa cell functional assay (in words) [1]: lowest residual agonist activity; residual agonist activity, uterine weight/body weight (FIG. 1) [2]: less residual agonist activity than tamoxifen
19 | CCNC(=O)C=Cc1ccc(C(=C(CC)c2ccccc2)c2ccccc2)cc1 [compound 16, 3-[4-(1,2-Diphenyl-but-1-enyl)-phenyl]-N-ethyl acrylamide] | – | – | – | EC50 [1]: 18 nM; Emax (maximal alkaline phosphatase activity) [1]: 11.8 ± 1.9%
20 | CCC(=C(c1ccccc1)c1ccc(C=CC(N)=NO)cc1)c1ccccc1 [compound 17, 1-Amino-3-[4-(1,2-diphenyl-but-1-enyl)-phenyl]-prop-2-ene-1-one oxime] | – | – | 182 to 185 °C | –
21 | CCC(=C(c1ccccc1)c1ccc(C=CC(=S)N(CC)CC)cc1)c1ccccc1 [compound 21, 3-[4-(1,2-Diphenyl-but-1-enyl)-phenyl]-N,N-diethyl thioacrylamide] | – | – | – | EC50 [1]: 6.9 nM; Emax (maximal alkaline phosphatase activity) [1]: 18.8 ± 2.6%
22 | CCC(=C(c1ccccc1)c1ccc(C=CC(=O)NCCCO)cc1)c1ccccc1 [compound 22, 3-[4-(1,2-Diphenyl-but-1-enyl)-phenyl]-N-(3-hydroxy-propyl)-acrylamide] | 17 nM | 15.3 ± 2.4% | 144 to 146 °C | –
